The results in this text go back to the OligoGym collection.

“And” between values parts separate entries of the source, which are not always exact repeats. Equal entries are not always repeated. HELM strings list units from the 5' end as sugar, base in round brackets, then linkage (d deoxyribose, r ribose, m 2'-O-methyl, p phosphodiester). Methylation of C is not given here. [moe] = 2'-O-(2-methoxyethyl) (MOE); [cEt] = constrained ethyl (cEt); [sp] = phosphorothioate linkage

One data set has as its target HBV. The note with it: ASO, HepG2, 0.0092593 µM.
Turning to “RNA1{[moe](A)[sp].[moe](C)[sp].d(G)[sp].d(T)[sp].d(G)[sp].d(C)[sp].d(A)[sp].d(G)[sp].d(A)[sp].d(G)[sp].d(G)[sp].[moe](T)[sp].[moe](G)[sp].[moe](A)[sp].[moe](A)[sp].[moe](G)[sp].[moe](C)}$$$$V2.0”, the target mRNA inhibition was determined as 20%.

The data set is the same for the next values; noted with them: ASO, HepG2, 0.0277778 µM.
“RNA1{[moe](A)[sp].[moe](C)[sp].d(G)[sp].d(T)[sp].d(G)[sp].d(C)[sp].d(A)[sp].d(G)[sp].d(A)[sp].d(G)[sp].d(G)[sp].[moe](T)[sp].[moe](G)[sp].[moe](A)[sp].[moe](A)[sp].[moe](G)[sp].[moe](C)}$$$$V2.0” had a target mRNA inhibition of 25%.

The same data set, now with this note: ASO, HepG2, 0.07 µM.
For “RNA1{[moe](A)[sp].[moe](C)[sp].[moe](G)[sp].[moe](T)[sp].[moe](G)[sp].[moe](C)[sp].d(A)[sp].d(G)[sp].d(A)[sp].d(G)[sp].d(G)[sp].d(T)[sp].d(G)[sp].d(A)[sp].d(A)[sp].[moe](G)[sp].[moe](C)}$$$$V2.0”, the target mRNA inhibition was 78% and 58%.
On the same count and under the same terms, with “RNA1{[moe](A)[sp].[moe](C)[sp].[moe](G)[sp].d(T)[sp].d(G)[sp].d(C)[sp].d(A)[sp].d(G)[sp].d(A)[sp].d(G)[sp].d(G)[sp].d(T)[sp].[moe](G)[sp].[moe](A)[sp].[moe](A)[sp].[moe](G)[sp].[moe](C)}$$$$V2.0” the figure was 79% and 72%; with “RNA1{[moe](A)[sp].[moe](C)[sp].[moe](T)[sp].[moe](A)[sp].d(G)[sp].d(T)[sp].d(A)[sp].d(A)[sp].d(A)[sp].d(C)[sp].d(T)[sp].d(G)[sp].d(A)[sp].[moe](G)[sp].[moe](C)[sp].[moe](C)}$$$$V2.0”, 62% and 63%.
On the same count and under the same terms, with “RNA1{[moe](A)[sp].[moe](C)[sp].[moe](T)[sp].[moe](G)[sp].d(G)[sp].d(A)[sp].d(G)[sp].d(C)[sp].d(C)[sp].d(A)[sp].d(C)[sp].d(C)[sp].d(A)[sp].[moe](G)[sp].[moe](C)[sp].[moe](A)}$$$$V2.0” the figure was 45% and 20%.
Same read-out and setting: next, “RNA1{[moe](A)[sp].[moe](C)[sp].[moe](T)[sp].d(A)[sp].d(G)[sp].d(T)[sp].d(A)[sp].d(A)[sp].d(A)[sp].d(C)[sp].d(T)[sp].d(G)[sp].[moe](A)[sp].[moe](G)[sp].[moe](C)[sp].[moe](C)}$$$$V2.0”: 64% and 69%.
With “RNA1{[moe](A)[sp].[moe](C)[sp].[moe](T)[sp].d(G)[sp].d(G)[sp].d(A)[sp].d(G)[sp].d(C)[sp].d(C)[sp].d(A)[sp].d(C)[sp].d(C)[sp].[moe](A)[sp].[moe](G)[sp].[moe](C)[sp].[moe](A)[sp].[moe](G)}$$$$V2.0”, the target mRNA inhibition was 67% and 65%.
Same read-out and setting: with “RNA1{[moe](A)[sp].[moe](C)[sp].d(C)[sp].d(A)[sp].d(A)[sp].d(T)[sp].d(T)[sp].d(T)[sp].d(A)[sp].d(T)[sp].d(G)[sp].[moe](C)[sp].[moe](C)[sp].[moe](T)[sp].[moe](A)[sp].[moe](C)[sp].[moe](A)}$$$$V2.0” the figure was 54% and 47%; with “RNA1{[moe](A)[sp].[moe](C)[sp].d(G)[sp].d(T)[sp].d(G)[sp].d(C)[sp].d(A)[sp].d(G)[sp].d(A)[sp].d(G)[sp].d(G)[sp].[moe](T)[sp].[moe](G)[sp].[moe](A)[sp].[moe](A)[sp].[moe](G)[sp].[moe](C)}$$$$V2.0”, 78%; with “RNA1{[moe](A)[sp].[moe](G)[sp].[moe](A)[sp].[moe](G)[sp].d(G)[sp].d(T)[sp].d(G)[sp].d(A)[sp].d(A)[sp].d(G)[sp].d(C)[sp].d(G)[sp].d(A)[sp].[moe](A)[sp].[moe](G)[sp].[moe](T)}$$$$V2.0”, 52% and 54%.
For “RNA1{[moe](A)[sp].[moe](G)[sp].[moe](A)[sp].[moe](T)[sp].d(G)[sp].d(A)[sp].d(G)[sp].d(G)[sp].d(C)[sp].d(A)[sp].d(T)[sp].d(A)[sp].d(G)[sp].[moe](C)[sp].[moe](A)[sp].[moe](G)[sp].[moe](C)}$$$$V2.0”, the target mRNA inhibition was 45% and 40%.
Still for that read-out and setting: next, “RNA1{[moe](A)[sp].[moe](G)[sp].[moe](A)[sp].d(A)[sp].d(G)[sp].d(T)[sp].d(C)[sp].d(C)[sp].d(A)[sp].d(C)[sp].d(C)[sp].d(A)[sp].[moe](C)[sp].[moe](G)[sp].[moe](A)[sp].[moe](G)[sp].[moe](T)}$$$$V2.0”: 41% and 44%.
Still for that read-out and setting: with “RNA1{[moe](A)[sp].[moe](G)[sp].[moe](A)[sp].d(G)[sp].d(G)[sp].d(T)[sp].d(G)[sp].d(A)[sp].d(A)[sp].d(G)[sp].d(C)[sp].d(G)[sp].d(A)[sp].[cEt](A)[sp].[cEt](G)[sp].[cEt](T)}$$$$V2.0” the figure was 69% and 74%; with “RNA1{[moe](A)[sp].[moe](G)[sp].[moe](A)[sp].d(T)[sp].d(G)[sp].d(A)[sp].d(G)[sp].d(G)[sp].d(C)[sp].d(A)[sp].d(T)[sp].d(A)[sp].d(G)[sp].[cEt](C)[sp].[cEt](A)[sp].[cEt](G)}$$$$V2.0”, 50% and 70%; with “RNA1{[moe](A)[sp].[moe](G)[sp].[moe](G)[sp].[moe](C)[sp].[moe](A)[sp].[moe](T)[sp].d(A)[sp].d(G)[sp].d(C)[sp].d(A)[sp].d(G)[sp].d(C)[sp].d(A)[sp].d(G)[sp].d(G)[sp].[moe](A)[sp].[moe](T)}$$$$V2.0”, 71% and 50%.
With “RNA1{[moe](A)[sp].[moe](G)[sp].[moe](G)[sp].d(C)[sp].d(A)[sp].d(T)[sp].d(A)[sp].d(G)[sp].d(C)[sp].d(A)[sp].d(G)[sp].d(C)[sp].[moe](A)[sp].[moe](G)[sp].[moe](G)[sp].[moe](A)[sp].[moe](T)}$$$$V2.0”, the target mRNA inhibition is 55% and 53%.
The same measure, in the same setting: with “RNA1{[moe](A)[sp].[moe](G)[sp].[moe](G)[sp].d(C)[sp].d(A)[sp].d(T)[sp].d(A)[sp].d(G)[sp].d(C)[sp].d(A)[sp].d(G)[sp].d(C)[sp].d(A)[sp].[cEt](G)[sp].[cEt](G)[sp].[cEt](A)}$$$$V2.0” the figure was 69% and 77%.
On the same count and under the same terms, with “RNA1{[moe](A)[sp].[moe](G)[sp].[moe](T)[sp].d(T)[sp].d(C)[sp].d(C)[sp].d(G)[sp].d(C)[sp].d(A)[sp].d(G)[sp].d(T)[sp].d(A)[sp].[moe](T)[sp].[moe](G)[sp].[moe](G)[sp].[moe](A)}$$$$V2.0” the figure was 46% and 58%; with “RNA1{[moe](A)[sp].[moe](G)[sp].d(A)[sp].d(G)[sp].d(A)[sp].d(A)[sp].d(G)[sp].d(T)[sp].d(C)[sp].d(C)[sp].d(A)[sp].[moe](C)[sp].[moe](C)[sp].[moe](A)[sp].[moe](C)[sp].[moe](G)[sp].[moe](A)}$$$$V2.0”, 39% and 27%.
On the same count and under the same terms, with “RNA1{[moe](A)[sp].[moe](G)[sp].d(A)[sp].d(G)[sp].d(G)[sp].d(T)[sp].d(G)[sp].d(A)[sp].d(A)[sp].d(G)[sp].d(C)[sp].[moe](G)[sp].[moe](A)[sp].[moe](A)[sp].[moe](G)[sp].[moe](T)[sp].[moe](G)}$$$$V2.0” the figure was 56%.
With “RNA1{[moe](A)[sp].[moe](G)[sp].d(A)[sp].d(G)[sp].d(G)[sp].d(T)[sp].d(G)[sp].d(A)[sp].d(A)[sp].d(G)[sp].d(C)[sp].[moe](G)[sp].[moe](A)[sp].[moe](A)[sp].[moe](G)[sp].[moe](T)}$$$$V2.0”, the target mRNA inhibition is 40% and 48%.
On the same count and under the same terms, next, “RNA1{[moe](A)[sp].[moe](G)[sp].d(A)[sp].d(T)[sp].d(G)[sp].d(A)[sp].d(G)[sp].d(G)[sp].d(C)[sp].d(A)[sp].d(T)[sp].[moe](A)[sp].[moe](G)[sp].[moe](C)[sp].[moe](A)[sp].[moe](G)[sp].[moe](C)}$$$$V2.0”: 76% and 78%; “RNA1{[moe](A)[sp].[moe](G)[sp].d(A)[sp].d(T)[sp].d(G)[sp].d(A)[sp].d(G)[sp].d(G)[sp].d(C)[sp].d(A)[sp].d(T)[sp].[moe](A)[sp].[moe](G)[sp].[moe](C)[sp].[moe](A)[sp].[moe](G)}$$$$V2.0”: 62% and 46%.

The same data set, now with this note: ASO, HepG2, 0.0833333 µM.
In the case of “RNA1{[moe](A)[sp].[moe](C)[sp].d(G)[sp].d(T)[sp].d(G)[sp].d(C)[sp].d(A)[sp].d(G)[sp].d(A)[sp].d(G)[sp].d(G)[sp].[moe](T)[sp].[moe](G)[sp].[moe](A)[sp].[moe](A)[sp].[moe](G)[sp].[moe](C)}$$$$V2.0”, the target mRNA inhibition is 69%.

Still in this data set, the particulars now being: ASO, HepG2, 0.25 µM.
In the case of “RNA1{[moe](A)[sp].[moe](C)[sp].d(G)[sp].d(T)[sp].d(G)[sp].d(C)[sp].d(A)[sp].d(G)[sp].d(A)[sp].d(G)[sp].d(G)[sp].[moe](T)[sp].[moe](G)[sp].[moe](A)[sp].[moe](A)[sp].[moe](G)[sp].[moe](C)}$$$$V2.0”, the target mRNA inhibition is 89%.
